These results are taken from paper PMC8911181, “A Novel CDK4/6 and PARP Dual Inhibitor ZC-22 Effectively Suppresses Tumor Growth and Improves the Response to Cisplatin Treatment in Breast and Ovarian Cancer” (International Journal of Molecular Sciences, 2022).

The IC50 is the concentration at which inhibition is half-maximal.

The subject of one assay is MDA-MB-231 cells. Nature of the assay: Cell viability assay (CCK-8), IC50. The format is cell-based. The settings on record: Homo sapiens, 6 days, medium replenished every 2 days. How it is done:
(§1) Human breast cancer cell lines MDA-MB-231 and SUM-159, and human ovarian cancer cell lines OVCAR5 and SKOV3 were obtained from the American Type Culture Collection (ATCC). MDA-MB-231 cells were cultured in L-15 medium with 10% fetal bovine serum (FBS), incubated at 37 °C in a humidified incubator without additional CO2. SUM-159 cells were maintained in Dulbecco’s modified Eagle’s medium (DMEM) containing 10% FBS, and OVCAR5 and SKOV3 cells were incubated in Roswell Park Memorial Institute (RPMI)-1640 medium with 10% FBS and cultured at 37 °C in a humidified incubator containing 5% CO2.
(§2) Cell viability assay was performed as described before. Briefly, 2500/well of breast or ovarian cancer cells were seeded into a 96-well plate; grown overnight; treated with indicated concentration of Olaparib, LY2835219, ZC22, LP-1, GC-24, or cisplatin alone or together for an indicated amount of time; and then incubated with Cell Counting kit-8 (CCK-8) substrate (Dojindo, Kumamoto, Kyushu Island, Japan) for 1–2 h at 37 °C. Cell viability was calculated by the absorbance at 450 nm measured by the GloMax Explorer (Promega, Madison, WI, USA). Cells without treatment were set as 100%, and medium control (no cells) was set as 0%.
(§3) Figure 1 Synthesis strategy and activity assay of the novel compounds targeting both PARP and CDK4/6. (A) Synthesis strategy of the three novel compounds GC-24, LP-1, and ZC-22. (B) IC50 of GC-24, LP-1, and ZC-22 in breast and ovarian cancer cells. Cells were treated with increasing concentrations of GC-24, LP 1, or ZC-22 for 6 days with replenishment of medium every 2 days. Cell proliferation was analyzed by CCK-8 assays. (C) The reagents and conditions used for the chemical synthesis of ZC-22 in this study: (a) Pd(AcO)2, BINAP, CS2CO3, 1,4-Dioxane, 100 °C, 12 h; (b) CF3COOH, DCM, Room temperature, 6 h; (c) HOBt, EDCI, DIPEA, DMF, Room temperature, 12 h. TEXT PRINTED IN THE PICTURE: (B) LP-1: MDA-MB-231 IC50 (μM): >50; SUM-159 IC50 (μM): 7.780; OVCAR5 IC50 (μM): 10.11; SKOV3 IC50 (μM): 10.16 | (B) GC-24: MDA-MB-231 IC50 (μM): 33.77; SUM-159 IC50 (μM): 17.77; OVCAR5 IC50 (μM): 26.08; SKOV3 IC50 (μM): >50 | (B) ZC-22: MDA-MB-231 IC50 (μM): 3.608; SUM-159 IC50 (μM): 0.435; OVCAR5 IC50 (μM): 0.758; SKOV3 IC50 (μM): 0.542
(§4) Figure 2 ZC-22 suppresses proliferation of breast and ovarian cancer cells. (A) IC50 of ZC-22, Olaparib, and LY2835219 (Abemaciclib) in breast and ovarian cancer cells. Cells were treated with increasing concentrations of ZC-22, Olaparib, or LY2835219 for 6 days with replenishment of medium every 2 days. Cell proliferation was analyzed by CCK-8 assays. (B) Cell proliferation assay of breast and ovarian cancer cells with indicated treatment. MDA-MB-231 cells were treated with 2 μM Olaparib (OLA) or LY2835219 (LY-2) alone or together (OLA + LY-2) or with ZC-22 alone for 48 or 72 h. SUM-159, OVCAR5, and SKOV3 cells were treated with 0.5 μM OLA or LY-2 alone or together or with ZC-22 alone. Cell proliferation assay was analyzed by CCK-8 assays. Values are means ± SD, n = 3. ns, not significant, * p < 0.05, ** p < 0.01 and *** p < 0.001 for comparisons with the DMSO-treated group using an unpaired t-test. TEXT PRINTED IN THE PICTURE: (A) ZC-22: MDA-MB-231 IC50 (μM): 3.608; SUM-159 IC50 (μM): 0.435; OVCAR5 IC50 (μM): 0.758; SKOV3 IC50 (μM): 0.542 | (A) LY2835219: MDA-MB-231 IC50 (μM): 11.28; SUM-159 IC50 (μM): 0.664; OVCAR5 IC50 (μM): 9.791; SKOV3 IC50 (μM): 1.158 | (A) Olaparib: MDA-MB-231 IC50 (μM): 32.13; SUM-159 IC50 (μM): 19.29; OVCAR5 IC50 (μM): 30.51; SKOV3 IC50 (μM): >50

For a further assay, the system named is OVCAR5 cells. As to the kind of experiment: Cell viability assay (CCK-8), IC50. The format is cell-based. The settings on record: Homo sapiens, OVCAR-5, 6 days, medium replenished every 2 days. How it is done: as §1, §2, §3, §4
In a further assay the test system is SKOV3 cells. Nature of the assay: Cell viability assay (CCK-8), IC50. It counts as cell-based. The settings on record: Homo sapiens, SK-OV-3, 6 days, medium replenished every 2 days. The protocol:
as §1, §2, §3, §4

For a further assay, the system named is SUM-159 cells. Nature of the assay: Cell viability assay (CCK-8), IC50. It counts as cell-based. The settings on record: Homo sapiens, SUM159, 6 days, medium replenished every 2 days. The protocol: as §1, §2, §3, §4
For assay [1], the system named is MDA-MB-231 xenograft tumors. As to the kind of experiment: Breast cancer xenograft mouse model, tumor growth. It counts as in vivo, mice. The settings on record: 1.5 mg/kg cisplatin or 50 mg/kg ZC-22 ip alone or together. The protocol: Six-week-old female athymic nude mice (Homozygous) were purchase from Vital River Laboratories (Beijing, China) and maintained under the guidelines for laboratory animals of Nankai university (NKU). Mice were injected subcutaneously with 2 × 10^6 MDA-MB-231 or 8 × 10^6 OVCAR5 cells. When tumors were 50–100 mm^3 in size, the mice were randomly grouped and treated intraperitoneal (i.p.) with 50 mg/kg of Olaparib, 50 mg/kg of LY2835219, 50 mg/kg of ZC-22, or 1.5 mg/kg of cisplatin alone or in combinations or with the vehicle (PBS containing 10% DMSO and 10% 2-hydroxy-propyl-β-cyclodextrin) every 2 days. Tumor volume was measured every 3–4 days, which was calculated as Length × Width^2/2. At the end of the study, tumor and major organ tissues were harvested by surgery. For histopathological analysis, tissue samples were washed with PBS, fixed in 4% paraformaldehyde (PFA), paraffin-embedded, and sectioned into 7 μm thickness. For Western blot analysis, the tissue samples were dissociated by a tissue-tearor in RIPA buffer containing 1×protease and phosphatase inhibitors.
Figure 4 ZC-22 suppresses growth of breast cancer xenografts. Female NOD-SCID mice were injected subcutaneously with 2 × 10^6 of MDA-MB-231 cells and treated ip daily with 50 mg/kg of Olaparib (OLA) or LY2835219 (LY-2) alone or together (OLA + LY-2) or with ZC-22 alone starting on day 10 after injection of cells when tumors were 50–80 mm^3 in size. Tumor volumes were measured every 2–3 days. […] (B,C) Pictures of (B) and quantification of the size of (C) the MDA-MB-231 xenograft tumors at the end points. […] (E) Quantification of Ki67 (Left) and γH2A.X (Right)-positive cells in immunohistochemical staining of the xenograft tumor tissues. […]
Figure 6 ZC-22 sensitizes breast cancer cells to cisplatin treatment in vivo. […] Tumor volumes were measured every 2–3 days. […] (B,C) Pictures (B) and quantification of the size (C) of the MDA-MB-231 xenograft tumors at the end points. […] (E) Quantification of Ki67 (left) and γH2A.X (right)-positive cells in immunohistochemical staining of the xenograft tumor tissues. […]

With `CN(C)C(=O)c1cc2cnc(Nc3ccc(N4CCN(C(=O)c5cc(Cc6n[nH]c(=O)c7ccccc67)ccc5F)CC4)cn3)nc2n1C1CCCC1` [LP-1], the IC50 in the assay with MDA-MB-231 cells was above 50 µM; in the assay with OVCAR5 cells it was 10.1 µM; with SKOV3 cells, 10.2 µM; in the assay on SUM-159 cells it was 7.78 µM.
Taken in the same sequence, the figures for `O=C(c1cc(Cc2n[nH]c(=O)c3ccccc23)ccc1F)N1CCN(C(=O)C2CC2)CC1` [Olaparib, reference compound] were 32.1 µM, 30.5 µM, above 50 µM and 19.3 µM.
With `N.N.[Cl][Pt][Cl]` [cisplatin], the “growth of the xenograft tumors” value in assay [1] is “effectively inhibit growth of the xenograft tumors”.
As for `CC(=O)c1c(C)c2cnc(Nc3ccc(N4CCN(C(=O)c5cc(Cc6n[nH]c(=O)c7ccccc67)ccc5F)CC4)cn3)nc2n(C2CCCC2)c1=O` [GC-24], the IC50 was 33.8 µM in the assay with MDA-MB-231 cells, 26.1 µM in the assay with OVCAR5 cells, above 50 µM with SKOV3 cells and 17.8 µM in the assay with SUM-159 cells.
